Test results taken from article PMC12040169 (PLOS Biology, 2025).

Experiment: in vitro
Conditions: human, hela cells, % viability

| Structure (SMILES) | viability at 28.5 h, 10 µM |
| --- | --- |
| Cc1ccc(Oc2ncccc2[N+](=O)[O-])c(Br)c1 [CBK002822] | 94.8% |
| O=c1c(N2CCNCC2)nccn1CCc1cccs1 [CBK050382T] | 89.3% |
| CC(C)(C)c1ccc(OCc2nc(N)c3c(N)n[nH]c3n2)cc1 [CBK008565] | 90.8% |
| COc1ccc2[nH]cc(CCNC(=O)c3cncnc3)c2c1 [CBK122720] | 87.1% |
| CCOC(=O)CN1CCN(C(=O)Nc2ccccc2OC(F)(F)F)CC1 [CBK043656] | 97% |
| CC(=O)N1CCC(C(=O)NC(=O)NCc2ccc(F)cc2)CC1 [CBK034834] | 107% |
| Nc1cccc(-c2cc(Nc3ccc(CCO)cc3)ncn2)c1 [CBK090766] | 104% |
| O=C(CSCc1c(Cl)cccc1Cl)Nc1cccc(-c2nnc(-c3ccccc3)o2)c1 [CBK267435] | 96.7% |
| COc1ccc(N2C(=O)CC(Sc3ncccc3C(=O)O)C2=O)cc1 (stereo not drawn) [CBK263387] | 95.5% |
| CC(=O)N1CCN(C(C(=O)O)c2c[nH]c3cc(NC(=O)c4ccccc4)ccc23)CC1 (stereo not drawn) [CBK286680] | 84.9% |
| c1cncc(COc2nccnc2N2CCN(CCN3CCOCC3)CC2)c1 [CBK083141] | 104% |
| CC(=O)N[C@H](C(=O)N1CCC2(C/C=C/C[C@H]3COCC[C@H]3NC(=O)[C@@H](CC(C)C)NC2=O)CC1)[C@@H](C)OC(C)(C)C [CBK292197] | 90.7% |
| C[C@@H]1CN(C(=O)c2cc3c(C(=O)OC(C)(C)C)ncn3c3ccc(Cl)cc23)C[C@H](C)N1 [CBK016744] | 115% |
| CC(=O)c1ccc(-c2nccnc2NCc2cccnc2)s1 [CBK037050] | 99.5% |
| CCNC(=O)N1CC2(CCN(C/C=C/c3ccccc3)CC2)c2ccccc21 [CBK144596T] | 97.6% |
| O=C(O)c1cccc(NS(=O)(=O)c2ccc(Br)cc2F)c1 [CBK155691] | 95.6% |
| O=c1[nH]c(=O)c2cc(S(=O)(=O)Nc3cccc(CCc4ccccn4)c3)ccc2[nH]1 [CBK286389] | 97.9% |
| O=C(O)c1cccc(-c2cnc(NCC3CC3)c(C(=O)NCC(F)(F)F)c2)c1 [CBK106420] | 117% |
| CCN(CC)CCNC1=Nc2ccccc2CCC1 [CBK263520] | 94.7% |
| Cc1ccccc1-n1ccn(C(=O)CCCOc2ccc(Cl)cc2)c1=O [CBK106573] | 88.5% |
| Cc1c(C2CC(C(F)(F)F)n3nccc3N2)cnn1C (stereo not drawn) [CBK288015] | 93.9% |
| Cc1nc2c(s1)C[C@@H]1[C@](C)(CO)[C@H](O)CC[C@@]1(C)[C@@H]2CC(=O)O [CBK289571] | 93.3% |

| Structure (SMILES) | viability at 28.5 h, 10 µM |
| --- | --- |
| Cc1nn(C)c(N2CCNCC2)c1NC(=O)C(C)c1ccccc1 (stereo not drawn) [CBK045929T] | 108% |
| Cc1nccn1CCC1CCN(C(=O)c2cnn(C)c2)CC1 [CBK281951] | 89.3% |
| COc1ccc(N2CCN(c3cc(-c4cc(C(F)(F)F)cc(C(F)(F)F)c4)ncn3)CC2)cc1OC [CBK091020] | 96.1% |
| CC(C)[C@@H](CO)Nc1cncc(-c2cccc(Cl)c2)n1 [CBK037261] | 102% |
| CC(=O)N1CCC2(C/C=C/C[C@H]3CN(CC(N)=O)CC[C@H]3NC(=O)CNC2=O)CC1 [CBK292148] | 97.6% |
| Cc1ccc(OCC(=O)NC(=S)Nc2cccc(-c3nc4ncccc4o3)c2C)cc1 [CBK263925] | 109% |
| N/C(=N\C(=O)CN1C(=O)C2CCCCC2C1=O)Nc1nc2ccccc2s1 (stereo not drawn) [CBK263877] | 92.4% |
| Cn1c(N2CC[C@H](O)C2)nc2cc(C(=O)NCCn3cccn3)ccc21 [CBK307328] | 111% |
| CC(C)(C)C(=O)NCCCC(=O)Nc1nc2ccc(Oc3ccccc3)cc2s1 [CBK296652] | 97.9% |
| CCOC(=O)c1[nH]c2ccccc2c1NC(=O)c1ccc(OC(F)(F)F)cc1 [CBK160157] | 87.8% |
| CCN(CC)CCC(=O)c1ccc(Cl)cc1 [CBK015906C] | 101% |
| COc1cc(OC)c(CN2CC3(C)CC2CC(C)(C)C3)cc1Br (stereo not drawn) [CBK307074] | 86.4% |
| Cc1cc(F)c(S(N)(=O)=O)cc1NC(=O)c1cccc(Br)c1 [CBK051488] | 90.9% |
| COc1ccc2c(c1)C(=O)NC1(CCN(C(=O)c3ccc(OC)c(C)c3)CC1)O2 [CBK166291] | 106% |
| COc1ccc(C2(CN3CCC(NC(=O)C4CC4)CC3)CC2)cc1 [CBK285358] | 101% |
| O=C(Cn1nc(-c2cc3c(s2)CCC3)oc1=O)NC1CC1 [CBK283800] | 101% |
| CN(C)CC1CCCCN1C(=O)C1CC(=O)N(c2cccc(F)c2)C1 (stereo not drawn) [CBK282192] | 108% |
| COCCN(C(=O)c1ccc2ccccc2c1)C1CCS(=O)(=O)C1 (stereo not drawn) [CBK305758] | 102% |
| Nc1nc(N)c2cccc(F)c2n1 [CBK025945] | 91.4% |
| Nc1cccc(-c2cc(Nc3ccc(Cl)cc3)ncn2)c1 [CBK090886] | 91.7% |
| CC(C)Oc1ncc(C(=O)NCc2cccc(NC(N)=O)c2)cc1Cl [CBK306327] | 94.4% |
| CC(=O)c1ccc(OC(C)C)c(CSc2nc(O)cc(O)n2)c1 [CBK263446] | 91.5% |

| Structure (SMILES) | viability at 28.5 h, 10 µM |
| --- | --- |
| Cc1ccc(NC(=O)CN2C(=O)S/C(=C/c3ccc(-c4ccc(Cl)c(C(=O)O)c4)o3)C2=O)cc1 [CBK078256] | 86.3% |
| CCC(CC)C(=O)N1CCCC1c1nn(C)cc1-c1cc(C)no1 (stereo not drawn) [CBK283452] | 84.5% |
| O=c1c2c3nc4ccccc4nc3n(CCc3ccccc3)c2ncn1C1CCCC1 [CBK269464] | 105% |
| CC(=O)N1CCN(c2ccc(NC(=O)CSc3ccc(C)cc3)cc2)CC1 [CBK269854] | 95.6% |
| CN(C)C(C)(C)COc1ncccc1OCCO [CBK042184] | 112% |
| COc1ccc([C@@]23CC[C@@H](NC(=O)Nc4ccc5c(c4)OC(F)(F)O5)C[C@@H]2N(C)CC3)cc1OC [CBK073743T] | 88.8% |
| O=C(NCN1CCN(c2ccccc2F)CC1)c1cccnc1 [CBK265530] | 90% |
| COC(=O)c1ccc(NC(=O)Cn2nnc(-c3ccc(CN4CCOCC4)cc3)n2)cc1 [CBK134589] | 95.4% |
| Cn1cc(CC(=O)NCc2ccccc2)c2ccccc21 [CBK200200] | 84.1% |
| O=C1N=C(NCC2CCCCC2)SC1CC(=O)N1CCCC(O)C1 (stereo not drawn) [CBK067919] | 109% |
| Cc1ccc2c(c1)C(=O)NCC1(CCN(C(=O)C3CC3)CC1)O2 [CBK284835] | 108% |
| CN(CCO)S(=O)(=O)c1ccccc1[N+](=O)[O-] [CBK261457] | 102% |
| CN1CCN(S(=O)(=O)c2ccc(NC(=O)c3cc(-c4ccncc4)nc4ccc(Cl)cc34)cc2)CC1 [CBK267730] | 98.6% |
| COCCN1C(=O)c2ccc(C(=O)c3ccc4c(c3)C(=O)N(CCOC)C4=O)cc2C1=O [CBK268641] | 113% |
| COc1ccc(C2CC(c3ccccc3O)=NN2)cc1 (stereo not drawn) [CBK287281] | 77.8% |
| CCN(CC)C(=O)Cn1c(=O)n(CC)c2ncccc21 [CBK282347] | 107% |
| Cc1cc(C)nc(Nc2n[nH]c(Cc3ccccc3)n2)n1 [CBK267023] | 96.3% |
| CCN(CC)C(=O)c1c(NS(=O)(=O)c2ccc(C)cc2)sc2c1CCCC2 [CBK028627] | 111% |
| CN(C)[C@H]1CCN(C(=O)c2ccc(Nc3cncc(Cl)n3)cn2)C1 [CBK172073] | 88.8% |
| CC(C)(C)C(=O)Nc1cccc(OC(F)(F)C(F)Cl)c1 (stereo not drawn) [CBK018091] | 95% |
| O=C(O)c1cc(NC(=O)c2ccco2)cc(C(=O)O)c1 [CBK263360] | 102% |
| Cc1cc2c(cc1S(=O)(=O)NCCOc1cccc(C(=O)O)c1)OCC(=O)N2 [CBK299770] | 88.3% |

| Structure (SMILES) | viability at 28.5 h, 10 µM |
| --- | --- |
| Cc1ccc(-c2noc(-c3cccnc3N3CCC(C(=O)O)CC3)n2)cc1 [CBK287260] | 90.3% |
| COc1ccc(CNc2nccs2)c(O)c1 [CBK265690] | 86.2% |
| Cc1cc(C)c(OCCNC(=O)c2ccccc2Sc2ccccc2C#N)c(C)c1 [CBK266048] | 97.7% |
| Cc1cnc2[nH]c(C(C)C)c(CN3CCCOCC3)c2c1 [CBK284742] | 90.7% |
| O=C(Cc1ccc(Cl)cc1Cl)Nc1ccc(-c2nnc3n2CCCCC3)cc1 [CBK296949] | 94.8% |
| O=C(NCCCn1ccnc1)c1ncoc1-c1cccs1 [CBK282404] | 92.7% |
| Cc1nc2c(OCCN3C(=O)c4ccccc4C3=O)cccn2c1N(C)C(=O)C1CCCCC1 [CBK147157] | 95% |
| CCCN1CCC(CNC(=O)c2cnn(-c3ccc(F)cc3)c2)CC1 [CBK282466] | 112% |
| CCCN1CC(NS(=O)(=O)c2cc(-n3cccn3)ccc2C)CC1=O (stereo not drawn) [CBK306835] | 98.3% |
| CC(=O)Nc1cccc(-n2nnnc2SCC2CCCN(C)C2)c1 (stereo not drawn) [CBK305294] | 108% |
| CC(=O)c1ccc(-c2ccc(/C=C\c3[nH]c(=O)[nH]c(=O)c3[N+](=O)[O-])o2)cc1 [CBK267038] | 90.7% |
| O=C(NCCc1cccs1)Nc1ccc2c(c1)C(F)(F)OC(F)(F)O2 [CBK045255] | 98.2% |
| CC(=O)C(C)n1c(CN2CCCC(C)C2)nc2c1c(=O)n(C)c(=O)n2C (stereo not drawn) [CBK306061] | 88.2% |
| O=c1[nH]cc(S(=O)(=O)Nc2ccccc2)c(=O)[nH]1 [CBK287703] | 93.5% |
| CCOC(=O)/C(C#N)=C(\O)c1ccc(N2C(=O)c3ccc(C(=O)O)cc3C2=O)cc1 [CBK262683] | 91.8% |
| Cc1nc(CCNC(=O)C2CC(c3cccc(F)c3)=NO2)cs1 (stereo not drawn) [CBK305798] | 106% |
| O=C(NCc1csc2c1CCCC2)N1CCCC(c2cc(O)ncn2)C1 (stereo not drawn) [CBK306705] | 99.3% |
| COc1ccc2[nH]c(=O)c(CNc3ccc4c(c3)-c3ccccc3S(=O)(=O)N4)cc2c1 [CBK286409] | 84.2% |
| O=C(O)c1ccc(/C=N/Nc2nc(N3CCOCC3)nc(N3CCOCC3)n2)cc1 [CBK262433] | 99% |
| Cc1noc(C)c1NC(=O)c1ccc2ncccc2c1 [CBK200308] | 104% |
| Cc1cc(C)n(CCCNC(=O)Cc2csc(N3CCCC3=O)n2)n1 [CBK305708] | 94.6% |
